Reference: US20060223743A1, “Metabolites of cyclosporin analogs” (priority 2004, published 2006)

Tested on: calcineurin
Assay: Calcineurin activity assay in whole blood lysates (dephosphorylation of 32P-labelled 19 amino acid peptide substrate)
Assay type: biochemical
Settings: in the presence of okadaic acid
Procedure: Calcineurin activity was assayed using a modification of the method previously described by Fruman et al. (A Proc Natl Acad Sci USA, 1992) and in U.S. Pat. No. 6,605,593. Whole blood lysates are evaluated for their ability to dephosphorylate a ^32P-labelled 19 amino acid peptide substrate in the presence of okadaic acid, a phosphatase-type 1 and 2 inhibitor. Background phosphatase 2C activity (CsA and okadaic acid resistant activity) is determined and subtracted from each sample, with the assay performed in the presence and absence of excess added ISA247. The remaining phosphatase activity is taken as calcineurin activity.

Question: For C=C/C=C/C[C@@H](C)[C@@H](O)[C@H]1C(=O)N[C@@H](CC)C(=O)N(C)CC(=O)N(C)[C@@H](CC(C)C)C(=O)N[C@@H](C(C)C)C(=O)N(C)[C@@H](CC(C)C)C(=O)N[C@@H](C)C(=O)N[C@H](C)C(=O)N(C)[C@@H](CC(C)C)C(=O)N(C)[C@@H](CC(C)C)C(=O)N(C)[C@@H](C(C)C)C(=O)N1C [Trans ISA247], which “Metabolite EC50” value (calcineurin inhibition) is on record?
Answer: Its value is 0.208 µg/mL.

Question: What about the “Metabolite Emax” value (percent calcineurin inhibition) of the same compound?
Answer: Its value is 107%.
